Experimental data published in patent US20090304744A1, “METHODS OF ENHANCING IMMUNE RESPONSE IN THE INTRADERMAL COMPARTMENT AND COMPOUNDS USEFUL THEREOF” (priority 2003, published 2009).
Like-named read-outs stand apart in the source and are kept apart here.

Key:
[1] = tested on: influenza antigen (Influenza APR834); format: in vivo, Balb/c mice; details: ID; for Trend in immune response as indicated by ELISA signal (1:123 serum screening dilution): mice
[2] = tested on: Influenza A/Panama/2007/99 (H3N2); test: HAI assay after ID microneedle immunization of rats with FLUZONE +/- Tween 80; format: in vivo, Brown Norway rats; details: for % Seroconversion (HAI Titre ≧ 10) / % Seroprotection (HAI Titre ≧ 40): day 21, Tween 80 at 5% where added
Experimental: Measurement of HA specific Antibody Titer by HAI: Sera were collected and used as test samples. Fresh cRBC reagent was prepared daily. Sodium Chloride solution (0.9%) was added to wells of a Falcon® Non-Tissue Culture Treated Plate, 96 well, U-Bottom with Low Evaporation Lid. Viral lysate stock (8 HA/50 μl) was added to wells. Appropriate volume of test serum was added to a single row or column of “start wells,” and a serial dilution was performed by transferring 50 μl of the serum dilution from the “start wells” into the next well, creating a 1:2 dilution. When completed, wells contained a serial serum dilution and a constant amount of viral lysate antigen, being 4 HA per well. cRBC reagent (0.5%, 50 μl) was added to each well, including negative control wells, which contained no HA. The assay was allowed to incubate for 45 minutes at room temperature, ensuring that the plate is not jostled. For determination, plates were tilted at a 70-degree angle for 5 minutes, and viewed on alight box.
HAI assays were performed with A-New Caledonia (H1N1), A-Panama (H3N2) and B-Hong Kong antigen as single test antigens and trivalent pools.
Female Brown Norway (BN) rats (n=10/group) were immunized by ID delivery using Microneedles (34 gauge needle inserted into a 3.5″ long catheter to an exposed needle length of 1.0 mm). ID delivery by Microneedles consisted of 2 bolus injections of 100 μl by hand to either side of the lower back of the rat, approximately 10 seconds in duration (each bolus), using an attached 1 cc syringe. Rats were immunized with either of two different doses of the 2003/2004 season of FLUZONE™ (Aventis Pasteur, Swiftwater, Pa.), for a total of 9µg (high dose) or 0.9µg (low dose) hemagglutinin (HA) per rat, 3µg or 0.3µg HA of each strain of influenza in the vaccine (A/New Calcdonia/20/99 H1N1, A/Panama/2007/99H3N2, and B/Hong Kong/1434/2002).
The rats were bled 21 days after immunization and their serum assayed for neutralizing antibody titres using the hemagglutination inhibition (HAI) assay, and for influenza-specific antibody titres by ELISA. Both assays were performed against the H3N2 strain of influenza in the FLUZONE™ formulation to characterize the immune response.

[3] = tested on: Influenza A/Panama/2007/99 (H3N2); test: Influenza-specific ELISA titre after ID microneedle immunization of rats with FLUZONE +/- Tween 80; format: in vivo, Brown Norway rats; details: 5% Tween80 added to low or high dose FLUZONE
Experimental: Antibody response to FLUZONE™ was measured by coating an influenza antigen (Influenza APR834, purified/inactivated at 2 mg/mL from Charles River SPAFAS or Alternatively New Calcdonia, Panama or B-Hong Kong lysates from Biodesign Inc.) on a microtiter plate (96-well NUNC IMMUNO-PLATE™ with MAXISORP™ surface). The coating solution was approximately 3.8µg/mL of influenza protein in carbonate buffer (Sigma Chemical Co. Cat. C3041). The coating antigen was exposed to the Nunc plate for one hour at 37° C. The coating solution was discarded and replaced with a blocking solution (phosphate buffered saline with Tween™ 20 (PBS-TW20); Sigma Chemical Co. Cat. P-3563) and 5% w/v nonfat dry milk. The blocking solution was exposed to the plate surface for two hours at 37° C. The blocking solution was subsequently discarded.
Female Brown Norway (BN) rats (n=10/group) were immunized by ID delivery using Microneedles (34 gauge needle inserted into a 3.5″ long catheter to an exposed needle length of 1.0 mm). ID delivery by Microneedles consisted of 2 bolus injections of 100 μl by hand to either side of the lower back of the rat, approximately 10 seconds in duration (each bolus), using an attached 1 cc syringe. […]

[4] = tested on: trivalent test antigen (New Calcdonia, Panama and B-Hong Kong); set-up: species or system Hartley Guinea Pigs; details: guinea pig, in vivo
guinea pig skin = test: Guinea pig erythema Draize scoring after ID delivery of excipients; format: in vivo, Hartley guinea pigs; details: Tween 80 5%, Deoxycholate 0.1%, D-sorbitol 5%, Lutrol 15%; without antigen, 50 ul per injection, 34 gauge 1.0 mm; immediate, 1 h and 24 h readings
Excerpt: The methods of the invention provide fundamental principles and guidelines whereby optimum parameters may be determined for delivering immunogenic compositions to the dermal compartment (including epidermal and intradermal compartments) wherein the excipients have optimum adjuvant properties and the formulations of the invention have enhanced efficacy in comparison to when the same formulation is delivered using conventional modes of delivery, including intramuscular and subcutaneous delivery. The invention provides methods wherein the formulations of the invention have been screened to have optimum concentration ranges for delivery to the optimum depth of the intradermal compartment such that they have adjuvant properties, resulting in one or more of the following properties: minimal to no skin irritation as determined and assessed using conventional modes of analysis of skin reactions using visual methods such as Draize scoring (For a typical draize scoring analysis see table below); minimal to no hemolysis as determined using standard methods known in the art, and enhanced immune response as measured by enhanced seroconversion and/or enhanced antibody titers.
Erythema Draize scores for various excipients were determined using procedures described in Section 5.4, above. In one study, Tween™ 80 (5%), Deoxycholate (0.1%), D-sorbitol (5%) or Lutrol™ (15%) was administered (50 μl per injection) without the antigen to Hartley guinea pigs using 34 gauge, 1.0 mm needles. […] Deeper administrations will be necessary for deoycholate to be used reliably at this concentration. From left to right, the reading immediately after administration, the one-hour reading and the 24-hour reading.

RBCs = test: Hemolysis in blood of swine after ID Tween 80; format: in vivo, Yorkshire swine; details: 6 x 200 ul doses containing 5.0% Tween 80, 31 g x 1.5 mm needle, blood from systemic circulation
Experimental: Tween™ 80 Preferred concentrations avoid hemolysis: Surfactants/detergents can lyse RBCs. Blood from Yorkshire swine that received 6×200 ul doses containing 5.0% Tween™ 80 were collected. No hemolysis was observed was in blood taken immediately from the systemic circulation. A 31 g× 1.5 mm needle was used in the study.

intradermal tissue = test: Excipient operating profile: maximum concentration with Draize score of 2 or less vs tissue depth (slope m)
Excerpt: The preferred excipients of the invention have a common operating profile in the intradermal space defined by a slope (m) value of greater than 0.125. An exemplary profile for determining the optimal operating profile is depicted in FIG. 35. The slope identifies the change in maximum operating concentration as it relates to tissue depth within the intradermal compartment. […] The concentration of excipient at the first reference point is the highest concentration at the shallowest delivery depth that allows a draize score of 2 or less. […] The concentration of excipient at the second reference point is the highest concentration at the deepest delivery depth that allows a draize score of 2 or less. For example, the distance between the first and second delivery depth can be 2 mm apart and specifically 1 mm and 3 mm deliveries. The operating slope (m) can be described by the following formula: […]
Where C2 equals Cinfinity at D2
Where C1 equals maximum excipient concentration at D1 with a Draize score of 2 or less
Where Dn denotes delivery depth
Tween™ 80 matches the preferred excipient profile. FIG. 35 illustrates an excipient selected for the intradermal tissue according to the instant invention. Tween™ 80 has a profile similar to the “Excipient-A” in the illustration having a slope greater than 0.125. Whereby a 5% v/v soln of Tween™ 80 is at the maximum operating concentration at 1.0 mm depth, and can be used successfully at 10% v/v at the 3 mm depth.

In the case of `CCCCCCCC/C=C\CCCCCCCC(=O)OCCOCC(OCCO)C1OCC(OCCO)C1OCCO` (centres unmarked) [Tween 80, polysorbate 80], the “immune response compared to commercial trivalent vaccine delivered IM” value ([1]; Tween 80 0.9% V/V with trivalent vaccine, 34 g x 1 mm needle, murine model) is reported as “higher mean titers, higher median titers and higher seroconversion”, the seroconversion ([1]; Tween 80 at 5% + FLUZONE, Balb/c mice, ELISA with PR8 test antigen) is reported as 100% and the “Trend in immune response as indicated by ELISA signal (1:123 serum screening dilution)” value (shortened to “Trend in immune response as indicated”) ([1]; excipient 0.1% w/v with FLUZONE) is reported as 0.829. The “Trend in immune response as indicated” value ([1]; excipient 0.3% w/v with FLUZONE) was 1.599, the “Trend in immune response as indicated” value ([1]; excipient 0.9% w/v with FLUZONE) was 2.647 and the “increase of mean HAI titre relative to ID delivery of FLUZONE alone” value ([2]; 5% Tween80 added to low or high dose FLUZONE, ID, rats, H3N2) was 5 fold. For the same molecule, the “% Seroconversion (HAI Titre ≧ 10)” value ([2]; IDHigh (9 ug HA per rat)) was 100%, the “% Seroprotection (HAI Titre ≧ 40)” value ([2]; IDHigh (9 ug HA per rat)) was 100% and the “% Seroconversion (HAI Titre ≧ 10)” value ([2]; IDLow (0.9 ug HA per rat)) was 100%. The “% Seroprotection (HAI Titre ≧ 40)” value ([2]; IDLow (0.9 ug HA per rat)) was 90%, the “increase of mean ELISA titre relative to ID delivery of FLUZONE alone” value [3] was “up to 15 fold” and the “hemagglutin specific titer vs FLUZONE alone ID and FLUZONE alone IM” value [4] was “outperformed”. For the same molecule, the “Erythema Draize scores (tolerability)” value (guinea pig skin) was “reasonably well-tolerated”, the hemolysis (RBCs) was “No hemolysis” and the maximum operating concentration (intradermal tissue; 1.0 mm depth) was 5 % v/v. The “concentration that can be used successfully” value (intradermal tissue; 3 mm depth) was 10 % v/v, the “slope (maximum acceptable conc./tissue depth)” value (intradermal tissue; intradermal tissue, 1.0 mm vs 3 mm depth) was “greater than 0.125” and the draize score (swine skin; 2% Tween 80, 3.0 mm delivery, approximately 20-24 hours after administration, Yorkshire swine) was 0.0. The “tolerability in the ID space” value (swine skin; 5% Tween 80, swine, 31 g 1.5 mm needle) was “well tolerated”, the tolerability (swine skin; 10%, delivered to 1-2 mm depth, Yorkshire swine) was “not well tolerated” and the “Erythema Draize scores (tolerability)” value (swine skin; Tween 80 5%, Deoxycholate 0.1%, D-sorbitol 5%, Lutrol 15%, without antigen, 200 ul per injection, 31 gauge 1.5 mm, 1 h and 24 h readings) was “reasonably well-tolerated”. For the same molecule, the erythema (swine skin; in vivo) was “moderate to severe erythema” and the “skin reactions as a function of needle depth” value (swine skin; in vivo) was “improved with depth”.
